Experimental data: patent US20230391781A1, “MALT1 MODULATORS AND USES THEREOF” (Rheos Medicines, Inc., priority 2020, published 2023)
pIC50: −log10 of the molar value. Counter-ions that a name gives are not always drawn. Like-named read-outs stand apart in the source and are kept apart here.

What was measured:
full length MALT1 = full length MALT1 (Homo sapiens (Human), UniProt Q9UDY8); test: MALT1 Biochemical Assay; conditions: 15 nM enzyme, 30 μM peptide substrate Ac-Leu-Arg-Ser-Arg-Rh110-dPro, 30 min pre-incubation, 60 min reaction; mean value if tested more than once
Description: Inhibitor potency was evaluated by measuring enzymatic activity of full length MALT1 at varying concentrations of compound. The enzymatic assay consists of a single substrate reaction that monitors the release of a fluorescent dye upon cleavage of the peptide substrate. […] The assay buffer consists of 50 mM Hepes, pH 7.5, 0.8 M sodium citrate, 1 mM DTT, 0.004% tween-20, and 0.005% bovine serum albumin (BSA). […] The reaction was quenched after 60 minutes with the addition of iodoacetate at a final concentration of 10 mM. Total fluorescence was measured using an Envision (PerkinElmer) with fluorescence excitation at 485 nm and emission at […].
For potency determination, 1 μL of serially diluted compound (in 100% DMSO) was pre-incubated with 40 μL of enzyme for 30 minutes. The reaction was initiated with the addition of 10 μL of peptide substrate. The relative fluorescence units were transformed to percent inhibition by using 0% and 100% inhibition controls as reference. […] IC50 values were calculated by fitting the concentration-response curves to a four-parameter logistic equation in GraphPad Prism.

[1] = system: IL-2 in Jurkat (ATCC, clone E6.1) cells stimulated with anti-CD3/28/2; test: Jurkat IL-2 Assay; format: cell-based; conditions: Homo sapiens
Description: Inhibition was determined in a cell-based assay using Jurkat (ATCC, clone E6.1), an immortalized T-cell line, exposed to a dose response of compound and assessed for viability, and Il-2 inhibition by ELISA. Cells were cultured in RPMI/10% FBS (Invitrogen 11875093, Atlanta Biologicals S12450H), maintained below 3E6/mL and only used in assays while below passage 25. Compounds were stamped by ECHO onto 384w plates (PerkinElmer Culturplate, 6007680). The cells were plated in fresh media on top of compound and incubated for 30 minutes before stimulation with soluble anti-CD3/28/2 (Stemcell, 10970) for 24 hours. Supernatant was collected and assessed for Il-2 (MSD, 384w, L21SA-1). To assess viability of cells treated with compound, cells were lysed with CTG reagent (Promega, G7570), and measured by luminometer. […] IC50s calculated using 4-parameter fit in GraphPad Prism.
In this table, “A” indicates IC50 of less than 0.1 μM; “B” indicates IC50 from 0.1 μM up to 1 μM; and “C” indicates IC50 of greater than 1 μM. “N/A” indicates not tested. For a compound that was tested in more than one experiment, the result shown represents the mean value.

[2] = IL-2 inhibition, Jurkat cells, 30 min compound then anti-CD3/28/2 stimulation for 24 hours, mean value if tested more than once, read-out: IC50

full length MALT1, sequence (Q9UDY8 whole entry): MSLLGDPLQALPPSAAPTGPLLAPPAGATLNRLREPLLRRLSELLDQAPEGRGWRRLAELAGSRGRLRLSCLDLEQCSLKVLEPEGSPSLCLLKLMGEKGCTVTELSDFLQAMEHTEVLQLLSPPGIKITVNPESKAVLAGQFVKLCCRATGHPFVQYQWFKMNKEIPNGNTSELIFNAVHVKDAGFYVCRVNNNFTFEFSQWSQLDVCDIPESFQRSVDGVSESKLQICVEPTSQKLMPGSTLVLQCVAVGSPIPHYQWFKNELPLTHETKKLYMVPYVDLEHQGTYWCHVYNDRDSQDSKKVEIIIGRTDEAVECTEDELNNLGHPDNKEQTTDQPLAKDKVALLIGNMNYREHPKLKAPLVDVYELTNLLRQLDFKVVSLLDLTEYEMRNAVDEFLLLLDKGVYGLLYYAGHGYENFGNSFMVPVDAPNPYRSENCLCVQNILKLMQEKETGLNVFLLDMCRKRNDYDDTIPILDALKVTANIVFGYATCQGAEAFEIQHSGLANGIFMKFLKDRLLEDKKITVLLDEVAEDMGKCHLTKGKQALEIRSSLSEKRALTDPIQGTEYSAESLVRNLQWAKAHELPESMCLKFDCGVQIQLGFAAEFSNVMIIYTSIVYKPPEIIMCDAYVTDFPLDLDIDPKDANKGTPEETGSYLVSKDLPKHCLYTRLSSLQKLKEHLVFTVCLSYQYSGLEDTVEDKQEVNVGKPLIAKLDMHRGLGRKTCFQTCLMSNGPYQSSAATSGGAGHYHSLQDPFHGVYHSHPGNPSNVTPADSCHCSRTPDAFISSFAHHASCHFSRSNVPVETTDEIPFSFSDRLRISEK

Row | pIC50 (full length MALT1) | pIC50 [1, 2] | Structure (SMILES) | pIC50 ([1]; Jurkat)
1 | < 6.00 | < 6.00 | CO[C@@H](C)c1c(Nc2ccc([C@@H](N(C)C(=O)C3CCS(=O)(=O)CC3)C(F)(F)F)cc2)cnc2nc(Cl)nn12 [Compound 1.26, N-[(1R)-1-[4-({2-chloro-7-[(1S)-1-methoxyethyl]-[1,2,4]triazolo[1,5-a]pyrimidin-6-yl}amino)phenyl]-2,2,2-trifluoroethyl]-N-methyl-1,1-dioxo-1λ^6-thiane-4-carboxamide] | 
2 | < 6.00 | < 6.00 | CO[C@H](C)c1c(Nc2ccc([C@@H](N(C)C(=O)C3CCS(=O)(=O)CC3)C(F)(F)F)cc2)cnc2nc(Cl)nn12 [Compound 1.27, N-[(1R)-1-[4-({2-chloro-7-[(1R)-1-methoxyethyl]-[1,2,4]triazolo[1,5-a]pyrimidin-6-yl}amino)phenyl]-2,2,2-trifluoroethyl]-N-methyl-1,1-dioxo-1λ^6-thiane-4-carboxamide] | 
3 | < 6.00 | < 6.00 | CO[C@@H](C)c1c(Nc2ccc([C@H](N(C)C(=O)C3CCC3)C(F)(F)F)c(C)c2)cnc2nc(Cl)nn12 [Compound 1.28, N-[(1S)-1-[4-({2-chloro-7-[(1S)-1-methoxyethyl]-[1,2,4]triazolo[1,5-a]pyrimidin-6-yl}amino)-2-methylphenyl]-2,2,2-trifluoroethyl]-N-methylcyclobutanecarboxamide] | 
4 | < 6.00 | < 6.00 | CO[C@@H](C)c1c(Nc2ccc([C@H](N(C)C(=O)C3CC3)C(F)(F)F)c(C)c2)cnc2nc(Cl)nn12 [Compound 1.29, N-[(1S)-1-[4-({2-chloro-7-[(1S)-1-methoxyethyl]-[1,2,4]triazolo[1,5-a]pyrimidin-6-yl}amino)-2-methylphenyl]-2,2,2-trifluoroethyl]-N-methylcyclopropanecarboxamide] | 
5 | 6.00 to 7.00 | < 6.00 | CO[C@@H](C)c1c(Nc2ccc([C@H](N(C)C(=O)C3CCS(=O)(=O)CC3)C(F)(F)F)c(C)c2)cnc2nc(Cl)nn12 [Compound 1.30, N-[(1S)-1-[4-({2-chloro-7-[(1S)-1-methoxyethyl]-[1,2,4]triazolo[1,5-a]pyrimidin-6-yl}amino)-2-methylphenyl]-2,2,2-trifluoroethyl]-N-methyl-1,1-dioxo-1λ^6-thiane-4-carboxamide] | 
6 | < 6.00 | < 6.00 | CO[C@@H](C)c1c(Nc2ccc([C@H](N(C)C(=O)C3CCC3)C(F)(F)F)cc2C)cnc2nc(Cl)nn12 [Compound 1.31, N-[(1S)-1-[4-({2-chloro-7-[(1S)-1-methoxyethyl]-[1,2,4]triazolo[1,5-a]pyrimidin-6-yl}amino)-3-methylphenyl]-2,2,2-trifluoroethyl]-N-methylcyclobutanecarboxamide] | 
7 | 6.00 to 7.00 | < 6.00 | CO[C@@H](C)c1c(Nc2ccc([C@H](N(C)C(=O)C3CC3)C(F)(F)F)cc2C)cnc2nc(Cl)nn12 [Compound 1.32, N-[(1S)-1-[4-({2-chloro-7-[(1S)-1-methoxyethyl]-[1,2,4]triazolo[1,5-a]pyrimidin-6-yl}amino)-3-methylphenyl]-2,2,2-trifluoroethyl]-N-methylcyclopropanecarboxamide] | 
8 | 6.00 to 7.00 | < 6.00 | CO[C@@H](C)c1c(Nc2ccc([C@H](N(C)C(=O)C3CCS(=O)(=O)CC3)C(F)(F)F)cc2C)cnc2nc(Cl)nn12 [Compound 1.33, N-[(1S)-1-[4-({2-chloro-7-[(1S)-1-methoxyethyl]-[1,2,4]triazolo[1,5-a]pyrimidin-6-yl}amino)-3-methylphenyl]-2,2,2-trifluoroethyl]-N-methyl-1,1-dioxo-1λ^6-thiane-4-carboxamide] | 
9 | 6.00 to 7.00 | < 6.00 | CO[C@@H](C)c1c(Nc2ccc([C@H](N(C)C(=O)C3CCCNC3)C(F)(F)F)cc2)cnc2nc(Cl)nn12 (stereo partly drawn) [Compound 2.2, N-[(1S)-1-[4-({2-chloro-7-[(1S)-1-methoxyethyl]-[1,2,4]triazolo[1,5-a]pyrimidin-6-yl}amino)phenyl]-2,2,2-trifluoroethyl]-N-methylpiperidine-3-carboxamide] | 
10 | 6.00 to 7.00 | 6.00 to 7.00 | CO[C@@H](C)c1c(Nc2ccc([C@H](N(C)C(=O)C3CCNC3)C(F)(F)F)cc2)cnc2nc(Cl)nn12 (stereo partly drawn) [Compound 2.3, N—((S)-1-(4-((2-chloro-7-((S)-1-methoxyethyl)-[1,2,4]triazolo[1,5-a]pyrimidin-6-yl)amino)phenyl)-2,2,2-trifluoroethyl)-N-methylpyrrolidine-3-carboxamide hydrochloride] | 
11 | > 7.00 | 6.00 to 7.00 | CO[C@@H](C)c1c(Nc2ccc([C@H](N(C)C(=O)C3CCC(CN)CC3)C(F)(F)F)cc2)cnc2nc(Cl)nn12 (stereo partly drawn) [Compound 2.4, 4-(aminomethyl)-N-[(1S)-1-[4-({2-chloro-7-[(1S)-1-methoxyethyl]-[1,2,4]triazolo[1,5-a]pyrimidin-6-yl}amino)phenyl]-2,2,2-trifluoroethyl]-N-methylcyclohexane-1-carboxamide; Formic Acid] | 
12 | > 7.00 | 6.00 to 7.00 | CO[C@@H](C)c1c(Nc2ccc([C@H](N(C)C(=O)C3CCN(S(=O)(=O)C(C)C)CC3)C(F)(F)F)cc2)cnc2nc(Cl)nn12 [Compound 3.2, N-[(1S)-1-[4-({2-chloro-7-[(1S)-1-methoxyethyl]-[1,2,4]triazolo[1,5-a]pyrimidin-6-yl}amino)phenyl]-2,2,2-trifluoroethyl]-N-methyl-1-(propane-2-sulfonyl)piperidine-4-carboxamide] | 
13 | > 7.00 | 6.00 to 7.00 | COC(=O)N1CCC(C(=O)N(C)[C@@H](c2ccc(Nc3cnc4nc(Cl)nn4c3[C@H](C)OC)cc2)C(F)(F)F)CC1 [Compound 3.3, methyl 4-{[(1S)-1-[4-({2-chloro-7-[(1S)-1-methoxyethyl]-[1,2,4]triazolo[1,5-a]pyrimidin-6-yl}amino)phenyl]-2,2,2-trifluoroethyl](methyl)carbamoyl}piperidine-1-carboxylate] | 
14 | > 7.00 | 6.00 to 7.00 | CO[C@@H](C)c1c(Nc2ccc([C@H](N(C)C(=O)C3CCCN(C(C)=O)C3)C(F)(F)F)cc2)cnc2nc(Cl)nn12 (stereo partly drawn) [Compound 3.5, 1-acetyl-N-[(1S)-1-[4-({2-chloro-7-[(1S)-1-methoxyethyl]-[1,2,4]triazolo[1,5-a]pyrimidin-6-yl}amino)phenyl]-2,2,2-trifluoroethyl]-N-methylpiperidine-3-carboxamide] | 
15 | 6.00 to 7.00 | < 6.00 | CNC(=O)N1CCCC(C(=O)N(C)[C@@H](c2ccc(Nc3cnc4nc(Cl)nn4c3[C@H](C)OC)cc2)C(F)(F)F)C1 (stereo partly drawn) [Compound 3.6, N3-[(1S)-1-[4-({2-chloro-7-[(1S)-1-methoxyethyl]-[1,2,4]triazolo[1,5-a]pyrimidin-6-yl}amino)phenyl]-2,2,2-trifluoroethyl]-N1,N3-dimethylpiperidine 1,3-dicarboxamide] | 
16 | 6.00 to 7.00 | < 6.00 | CO[C@@H](C)c1c(Nc2ccc([C@H](N(C)C(=O)C3CCCN(S(C)(=O)=O)C3)C(F)(F)F)cc2)cnc2nc(Cl)nn12 (stereo partly drawn) [Compound 3.7, N-[(1S)-1-[4-({2-chloro-7-[(1S)-1-methoxyethyl]-[1,2,4]triazolo[1,5-a]pyrimidin-6-yl}amino)phenyl]-2,2,2-trifluoroethyl]-1-methanesulfonyl-N-methylpiperidine-3-carboxamide] | 
17 | 6.00 to 7.00 | < 6.00 | CO[C@@H](C)c1c(Nc2ccc([C@H](N(C)C(=O)C3CCN(C(C)=O)C3)C(F)(F)F)cc2)cnc2nc(Cl)nn12 (stereo partly drawn) [Compound 3.8, 1-acetyl-N-[(1S)-1-[4-({2-chloro-7-[(1S)-1-methoxyethyl]-[1,2,4]triazolo[1,5-a]pyrimidin-6-yl}amino)phenyl]-2,2,2-trifluoroethyl]-N-methylpyrrolidine-3-carboxamide] | 

Row | Structure (SMILES) | pIC50 (full length MALT1) | pIC50 [1, 2] | pIC50 ([1]; Jurkat)
18 | CO[C@@H](C)c1c(Nc2ccc([C@H](N(C)C(=O)C3CCNCC3)C(F)(F)F)cc2)cnc2nc(Cl)nn12 [Compound 2.1, N—((S)-1-(4-((2-chloro-7-((S)-1-methoxyethyl)-[1,2,4]triazolo[1,5-a]pyrimidin-6-yl)amino)phenyl)-2,2,2-trifluoroethyl)-N-methylpiperidine-4-carboxamide trifluoroacetate] | 6.00 to 7.00 |  | 6.00 to 7.00
